# Data taken from patent publication US4666932A, “Formamidine derivatives and pharmaceutical use” (Istituto de Angeli S.p.A., priority 1982, dated 1987).
# Columns and labels:
# [1] = molecular target: T1, histamine H2 -receptors (Rattus norvegicus, UniProt P25102); assay: In vivo antisecretory activity in histamine-induced gastric secretion (stomach-perfused rat); conditions: i.v., histamine 1 mg.kg^-1 hr^-1 intravenous, urethane anesthesia, values expressed taking the compound as a base
# T1 construct: from tissue; host or cells: stomach of the living, anaesthetised rat (in vivo)
# From the text: The ability of the test compounds to inhibit histamine-induced gastric secretion of acid was investigated after intravenous or intraduodenal administration in stomach-perfused rats, according to Gosh and Schild (Br. J. Pharmacol. Chemother. 13, 54, 1958).
# The preparation of the animals under general anesthesia (urethane, lg.kg^-1 i.p.) and constant temperature, was achieved by inserting and tying in place polyethylene tubes (PE 50) in the esophagus and in the pyloric-antral region. After the stomach was washed to remove residual of foods, continuous perfusion of the stomach was started with saline, 0.5 ml.min^-1 (37° C.), primed by a Jobling peristaltic pump. After 30 minutes of perfusion adaptation, the stomach perfusate was collected in 30 minute samples, and titrated for acid content, expressed as μEq of NaOH 1N. As control acid output became constant, intravenous perfusion of histamine (1 mg.kg^-1 hr^-1) was started and maintained throughout the experimental period. After the acid secretion had reached the steadily higher level, increasing doses of the test compound were injected intravenously in order to obtain dose-response functions. The ED50 was then calculated by standard procedure.
# [2] = molecular target: T2, histamine H2 -receptors (Cavia porcellus, UniProt P47747); assay: In vitro inhibition of histamine induced tachycardia (positive chronotropic effect), isolated guinea pig atria; type: cell-based; conditions: 32° C., pH 7.4, 30 minutes contact before histamine 10^-6 g.ml^-1
# T2 construct: isolated guinea pig atria suspended in an organ bath (50 ml); from tissue; host or cells: isolated guinea pig atria
# Description: The myocardial preparation, loaded with 1 g isometric tension, was allowed to stabilize 60 minutes, and myocardial contractions were recorded through an isometric lever connected to a strain-gauge coupler and the instantaneous rate was monitored with a cardiotachometer, and a heatwriting pen recorder. After two control responses to histamine (10^-6 g.ml^-1) the test compound was added to the bath at the desired final concentration and left for 30 minutes before the atria were again challenged with histamine. The chronotropic response obtained in the presence of the antagonist was then compared to the control response to histamine, and the percent reduction of the histamine H2 -evoked response was calculated. […] 3, Smooth muscle, Ed. Daniel E. E. Paton, M., Plenum Press, New York, (1975); Ash and Schild, Br. J. Pharmacol. Chemother. 27, 427-439, 1966.
# [3] = system: gastric acid secretion; conditions: prior art statement; cited from earlier work
# T1 sequence (P25102 whole entry, the tested form may be a part): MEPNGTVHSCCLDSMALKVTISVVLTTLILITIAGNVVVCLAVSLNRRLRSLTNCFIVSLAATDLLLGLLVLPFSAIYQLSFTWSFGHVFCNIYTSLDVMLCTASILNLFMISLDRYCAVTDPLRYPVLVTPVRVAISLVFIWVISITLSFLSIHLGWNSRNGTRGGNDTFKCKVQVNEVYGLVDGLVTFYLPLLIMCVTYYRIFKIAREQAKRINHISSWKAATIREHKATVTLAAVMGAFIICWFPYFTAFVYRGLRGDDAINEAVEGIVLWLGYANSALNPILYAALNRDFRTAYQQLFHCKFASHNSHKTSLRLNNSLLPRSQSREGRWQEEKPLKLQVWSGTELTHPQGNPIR
# T2 sequence (P47747 whole entry): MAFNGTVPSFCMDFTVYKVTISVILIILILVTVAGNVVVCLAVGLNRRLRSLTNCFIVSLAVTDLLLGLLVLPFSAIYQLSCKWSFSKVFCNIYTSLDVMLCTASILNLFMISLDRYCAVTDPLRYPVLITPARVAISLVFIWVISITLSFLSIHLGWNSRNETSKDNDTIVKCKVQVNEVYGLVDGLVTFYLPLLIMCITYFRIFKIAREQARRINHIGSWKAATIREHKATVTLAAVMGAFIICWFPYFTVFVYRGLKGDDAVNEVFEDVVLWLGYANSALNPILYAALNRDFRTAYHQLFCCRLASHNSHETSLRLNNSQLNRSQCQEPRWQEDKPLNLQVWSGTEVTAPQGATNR
SMILES,ED50 [1],EC50 [2],effect on gastric acid secretion [3]
C/N=C(\S)NCCSCc1[nH]cnc1C [metiamide],,,capable of antagonizing gastric acid secretion
CNC(=S)NCCCCc1cnc[nH]1 [burimamide],,,capable of antagonizing gastric acid secretion
COc1ccc(CN(CCN(C)C)c2ccccn2)cc1 [mepyramine],,,no effect on gastric acid secretion
CNC(=C[N+](=O)[O-])NCCSCc1ccc(CN(C)C)o1 [ranitidine],,,capable of antagonizing gastric acid secretion to a greater extent than cimetidine
CNC(=NCCSCc1csc(N=C(N)N)n1)NC#N [tiotidine],,,capable of antagonizing gastric acid secretion to a greater extent than cimetidine
"CN/C(=N/CCSCc1nc[nH]c1C)NC#N [CIMETIDINE, cimetidine]",,,capable of antagonizing gastric acid secretion

# Continued, in another order:
ED50 [1],EC50 [2],SMILES,effect on gastric acid secretion [3]
0.046 mg/kg,1600 nM,"N#CCCNC=Nc1ccc(-c2c[nH]cn2)cc1 [6 (j), N-(2-Cyano-ethyl)-N'-[4-(imidazol-4-yl)-phenyl]-formamidine]",
0.022 mg/kg,327 nM,"CSCCNC=Nc1ccc(-c2c[nH]cn2)cc1 [6 (b), N-(2-Methylthio-ethyl)-N'-[4-(imidazol-4-yl)-phenyl]-formamidine]",
0.083 mg/kg,320 nM,"CCOCSCCNC=Nc1ccc(-c2c[nH]cn2)cc1 [8 (b), N-(2-Ethoxymethylthio-ethyl)-N'-[4-(imidazol-4-yl)-phenyl]-formamidine]",
0.059 mg/kg,600 nM,"CCCNC=Nc1ccc(-c2c[nH]cn2)cc1OC [6 (m), N-Propyl-N'-[2-methoxy-4-(imidazol-4-yl)-phenyl]-formamidine]",
0.117 mg/kg,350 nM,"CCCNC=Nc1ccc(-c2c[nH]cn2)cc1Br [8 (c), N-n-Propyl-N'-[2-bromo-4-(imidazol-4-yl)-phenyl]-formamidine]",
0.043 mg/kg,1270 nM,"CC(O)CNC=Nc1ccc(-c2c[nH]cn2)cc1 (stereo not drawn) [6 (a), N-(2-hydroxypropyl)-N'-[4-(imidazol-4-yl)-phenyl]-formamidine]",
0.078 mg/kg,309 nM,"CCCCNC=Nc1ccc(-c2c[nH]cn2)cc1C [6 (k), N-n-Butyl-N'-[4-(imidazol-4-yl)-2-methyl-phenyl]-formamidine]",
0.05 mg/kg,588 nM,"COCCN=CNc1ccc(-c2c[nH]cn2)cc1 [Example 6, N-(2-Methoxy-ethyl)-N'-[4-(imidazol-4-yl)-phenyl]-formamidine]",
0.09 mg/kg,294 nM,"C=CCNC=Nc1ccc(-c2c[nH]cn2)cc1C [6 (l), N-Allyl-N'-[4-(imidazol-4-yl)-2-methyl-phenyl]-formamidine]",
